Source: patent publication US9393288B2, “Methods of treating diseases associated with PPARγ” (The University of Vermont and State Agricultural College, priority 2012, dated 2016)

Experiments:
Type in all cases: in vivo, rat
[1] = Conscious blood pressure, non-invasive tail-cuff method, SHR; settings: SHR-F, relaxin 4 μg/hr 14 days
Method: Systemic blood pressures were determined in all groups of animals using a non-invasive tail-cuff method (Chan, S. L., and Cipolla, M. J. (2011) Relaxin causes selective outward remodeling of brain parenchymal arterioles via activation of peroxisome proliferator-activated receptor-gamma. FASEB J 25, 3229-3239). For untreated WKY-F and SHR-F groups, blood pressures were measured on the day the animals were euthanized. For relaxin treated groups, blood pressures were measured on day 0 (baseline, before pump implant), 2, 7 and 14. All animals were trained for 3 days before actual blood pressure measurements were taken.

[2] = test system: middle cerebral arteries (MCA); experiment: Pressurized arteriograph: structure of MCA from female SHR; settings: SHR-F-Rln vs untreated SHR-F
Method: A separate group of SHR-F was used to determine if relaxin crosses the BBB by treating with relaxin (4 μg/hr) for 14 days and measuring relaxin concentration in cerebrospinal fluid (CSF) and serum (SHR-F-Rln-CSF, n=4). For the osmotic pump implant, animals were anesthetized with 3% isoflurane and minipumps implanted subcutaneously in the back of the neck. All animals received post-surgical analgesia (buprenorphine, 50 μg/kg, s.c.). Relaxin infusion was continuous for 14 days until animals were euthanized for isolated vessel experiments and tissue collection.
After collecting trunk blood, the brain was quickly removed and placed in cold physiological salt solution (PSS). […] Temperature and pH were continuously measured and maintained at 37.0±0.5° C. and 7.40±0.05, respectively. […]
PA and MCA were equilibrated for 1 hour, after which myogenic activity was determined by stepwise increases in pressure from 40 to 100 mmHg for PA or 50 to 175 mmHg for MCA. ID and WT were measured at each pressure once stable. […] To obtain structural measurements, ID and WT were recorded at pressures between 5 to 200 mmHg for PA or 5 to 175 mmHg for MCA in zero-calcium PSS containing ethylene glycol tetra-acetic acid (EGTA) and outer diameter (OD) and distensibility calculated.
Percent tone was calculated as percent decrease in ID from the passive diameter at each intravascular pressure: [1−(IDactive/IDpassive)]×100. […]

[3] = test system: brain capillaries; experiment: Brain capillary density (von Willebrand factor immunohistochemistry, capillary counting) in SHR; settings: relaxin-treated SHR vs WKY and untreated SHR

relaxin
Blood pressure [1]: did not cause a lowering of blood pressure
Blood pressure ([1]; listed as Relaxin): did not affect
Structure of MCA (passive ID, WT, distensibility) [2]: no effect
Number of capillaries in the brain (capillary density) [3]: significant increase
